Laboratory results taken from ChEMBL document CHEMBL3991601, “The target landscape of clinical kinase drugs” (Science, 2017).
Calls of active or inactive are those of the source.

How the values were obtained:
[1] = target: AP2-associated protein kinase 1 (Homo sapiens, UniProt Q2M2I8)
[2] = target: Tyrosine-protein kinase BTK (Homo sapiens, UniProt Q06187)
[3] = target: Cyclin-dependent kinase 12 (Homo sapiens, UniProt Q9NYV4)
[4] = target: Casein kinase II subunit alpha' (Homo sapiens, UniProt P19784)
[5] = target: ATP-dependent RNA helicase DDX3X (Homo sapiens, UniProt O00571)
Insulin receptor = Insulin receptor (Homo sapiens, UniProt P06213)
LIM domain kinase 1 = LIM domain kinase 1 (Homo sapiens, UniProt P53667)
[6] = target: Mitogen-activated protein kinase 1 (Homo sapiens, UniProt P28482)
Myosin-10 = Myosin-10 (Homo sapiens, UniProt P35580)
[7] = target: T1, Membrane-associated tyrosine- and threonine-specific cdc2-inhibitory kinase (Homo sapiens, UniProt Q99640)
T1 sequence (Q99640 whole entry): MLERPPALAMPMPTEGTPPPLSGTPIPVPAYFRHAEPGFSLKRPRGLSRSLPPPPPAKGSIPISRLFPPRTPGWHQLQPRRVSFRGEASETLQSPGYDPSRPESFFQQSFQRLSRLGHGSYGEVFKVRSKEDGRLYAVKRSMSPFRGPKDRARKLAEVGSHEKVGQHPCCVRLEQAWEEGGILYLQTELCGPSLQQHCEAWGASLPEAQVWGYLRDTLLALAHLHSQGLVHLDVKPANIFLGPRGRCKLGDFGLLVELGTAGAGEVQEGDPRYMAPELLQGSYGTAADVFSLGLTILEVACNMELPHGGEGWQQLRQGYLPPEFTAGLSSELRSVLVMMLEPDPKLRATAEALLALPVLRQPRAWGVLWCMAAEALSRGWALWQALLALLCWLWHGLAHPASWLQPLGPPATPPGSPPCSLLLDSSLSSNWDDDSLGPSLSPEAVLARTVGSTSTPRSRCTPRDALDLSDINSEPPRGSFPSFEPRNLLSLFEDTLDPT

[8] = target: cAMP-dependent protein kinase catalytic subunit gamma (Homo sapiens, UniProt P22612)
[9] = target: Serine/threonine-protein kinase SIK2 (Homo sapiens, UniProt Q9H0K1)
[10] = target: T2, Exosome RNA helicase MTR4 (Homo sapiens, UniProt P42285)
T2 sequence (P42285 whole entry): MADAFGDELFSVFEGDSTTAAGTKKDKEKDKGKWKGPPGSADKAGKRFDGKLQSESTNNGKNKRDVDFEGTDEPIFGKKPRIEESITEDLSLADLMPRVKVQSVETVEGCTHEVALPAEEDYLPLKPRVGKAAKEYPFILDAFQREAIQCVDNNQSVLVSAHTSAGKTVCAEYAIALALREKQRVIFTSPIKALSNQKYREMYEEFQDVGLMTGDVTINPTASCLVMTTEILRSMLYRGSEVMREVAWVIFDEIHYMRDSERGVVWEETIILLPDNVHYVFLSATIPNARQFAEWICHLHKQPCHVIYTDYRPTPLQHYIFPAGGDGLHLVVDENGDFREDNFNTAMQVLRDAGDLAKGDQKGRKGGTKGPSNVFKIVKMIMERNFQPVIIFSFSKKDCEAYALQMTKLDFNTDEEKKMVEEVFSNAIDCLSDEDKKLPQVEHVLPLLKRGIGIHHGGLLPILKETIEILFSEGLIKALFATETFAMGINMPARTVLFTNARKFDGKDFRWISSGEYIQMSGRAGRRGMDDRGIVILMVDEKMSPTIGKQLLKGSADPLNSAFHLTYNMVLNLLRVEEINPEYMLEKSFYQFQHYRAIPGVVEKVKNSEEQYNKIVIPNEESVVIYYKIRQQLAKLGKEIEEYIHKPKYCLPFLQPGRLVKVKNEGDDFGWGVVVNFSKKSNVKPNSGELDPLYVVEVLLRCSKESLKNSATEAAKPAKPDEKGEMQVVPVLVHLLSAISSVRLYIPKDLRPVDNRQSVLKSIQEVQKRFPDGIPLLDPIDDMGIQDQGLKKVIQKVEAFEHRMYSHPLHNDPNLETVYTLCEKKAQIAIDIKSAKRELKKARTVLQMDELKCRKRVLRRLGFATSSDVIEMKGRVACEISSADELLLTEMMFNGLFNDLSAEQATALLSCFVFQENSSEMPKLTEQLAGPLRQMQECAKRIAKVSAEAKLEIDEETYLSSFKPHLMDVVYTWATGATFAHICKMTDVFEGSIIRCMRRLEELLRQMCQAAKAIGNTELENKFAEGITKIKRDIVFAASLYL

TGF-beta receptor type-2 = TGF-beta receptor type-2 (Homo sapiens, UniProt P37173)
Note: in the data inactive means no Kd found up to 30 µM.

Chain of Mitogen-activated protein kinase 1 (P28482 whole entry): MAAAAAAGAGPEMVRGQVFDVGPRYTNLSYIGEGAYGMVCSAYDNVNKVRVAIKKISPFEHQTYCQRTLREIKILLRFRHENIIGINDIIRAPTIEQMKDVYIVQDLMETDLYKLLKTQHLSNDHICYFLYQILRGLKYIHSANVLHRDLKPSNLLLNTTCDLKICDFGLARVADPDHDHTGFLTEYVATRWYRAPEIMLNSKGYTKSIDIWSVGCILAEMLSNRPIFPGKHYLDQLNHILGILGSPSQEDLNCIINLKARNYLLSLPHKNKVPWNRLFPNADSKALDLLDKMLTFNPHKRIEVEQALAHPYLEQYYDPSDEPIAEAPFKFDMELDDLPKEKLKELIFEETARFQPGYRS
Chain of Insulin receptor (P06213 28-758 limits assumed): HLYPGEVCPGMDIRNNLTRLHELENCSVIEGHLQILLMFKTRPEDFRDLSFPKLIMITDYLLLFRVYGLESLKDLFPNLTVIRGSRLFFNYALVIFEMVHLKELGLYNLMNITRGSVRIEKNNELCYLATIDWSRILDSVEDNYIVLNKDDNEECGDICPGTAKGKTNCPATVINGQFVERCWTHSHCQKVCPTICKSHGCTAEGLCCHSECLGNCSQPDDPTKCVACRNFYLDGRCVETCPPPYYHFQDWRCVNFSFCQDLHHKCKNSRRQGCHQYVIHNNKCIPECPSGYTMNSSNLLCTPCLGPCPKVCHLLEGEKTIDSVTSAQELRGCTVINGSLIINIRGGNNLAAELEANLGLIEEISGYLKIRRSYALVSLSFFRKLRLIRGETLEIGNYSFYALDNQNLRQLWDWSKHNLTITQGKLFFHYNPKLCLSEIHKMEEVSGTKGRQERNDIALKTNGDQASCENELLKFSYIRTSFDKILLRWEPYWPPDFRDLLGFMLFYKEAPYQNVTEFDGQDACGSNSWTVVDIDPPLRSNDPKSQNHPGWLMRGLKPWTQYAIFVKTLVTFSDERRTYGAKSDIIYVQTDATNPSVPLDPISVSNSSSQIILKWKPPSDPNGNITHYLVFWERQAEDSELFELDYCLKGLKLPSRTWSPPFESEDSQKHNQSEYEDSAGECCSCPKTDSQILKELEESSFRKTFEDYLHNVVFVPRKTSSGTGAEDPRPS
Chain of Insulin receptor (P06213 763-1382 limits assumed): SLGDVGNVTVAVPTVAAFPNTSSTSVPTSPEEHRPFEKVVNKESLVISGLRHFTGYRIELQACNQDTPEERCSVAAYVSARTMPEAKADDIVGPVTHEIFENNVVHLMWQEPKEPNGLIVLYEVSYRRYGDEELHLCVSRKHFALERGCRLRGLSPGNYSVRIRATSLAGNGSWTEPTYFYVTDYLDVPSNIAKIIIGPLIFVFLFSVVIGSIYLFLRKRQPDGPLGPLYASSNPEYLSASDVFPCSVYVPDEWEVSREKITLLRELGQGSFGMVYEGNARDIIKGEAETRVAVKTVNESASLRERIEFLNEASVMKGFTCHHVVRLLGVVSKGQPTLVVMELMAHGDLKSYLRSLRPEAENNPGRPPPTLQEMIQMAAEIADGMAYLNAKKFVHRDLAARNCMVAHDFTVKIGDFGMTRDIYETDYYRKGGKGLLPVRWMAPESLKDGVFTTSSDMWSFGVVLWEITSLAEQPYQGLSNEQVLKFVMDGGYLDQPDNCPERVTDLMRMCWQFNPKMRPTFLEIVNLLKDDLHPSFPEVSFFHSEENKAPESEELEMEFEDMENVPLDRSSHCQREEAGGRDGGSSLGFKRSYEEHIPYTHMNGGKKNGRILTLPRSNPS
Chain of LIM domain kinase 1 (P53667 whole entry, the tested form may be a part): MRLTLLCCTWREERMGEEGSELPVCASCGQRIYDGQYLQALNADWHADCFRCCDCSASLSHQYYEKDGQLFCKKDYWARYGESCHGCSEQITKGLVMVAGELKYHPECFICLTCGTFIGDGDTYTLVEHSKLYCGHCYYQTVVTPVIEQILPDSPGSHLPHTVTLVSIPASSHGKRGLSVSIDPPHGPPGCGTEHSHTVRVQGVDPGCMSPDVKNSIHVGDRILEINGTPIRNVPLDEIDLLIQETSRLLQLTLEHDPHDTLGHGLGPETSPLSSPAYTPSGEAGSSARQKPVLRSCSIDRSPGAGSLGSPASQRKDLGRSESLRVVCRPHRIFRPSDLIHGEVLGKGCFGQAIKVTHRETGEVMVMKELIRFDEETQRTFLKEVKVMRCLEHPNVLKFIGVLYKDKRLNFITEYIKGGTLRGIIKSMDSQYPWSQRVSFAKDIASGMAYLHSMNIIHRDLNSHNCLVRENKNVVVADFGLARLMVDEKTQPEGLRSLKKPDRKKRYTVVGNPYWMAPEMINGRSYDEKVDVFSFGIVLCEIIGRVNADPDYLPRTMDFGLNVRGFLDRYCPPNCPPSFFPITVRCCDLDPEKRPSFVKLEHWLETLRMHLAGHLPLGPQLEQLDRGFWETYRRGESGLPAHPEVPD
Chain of Cyclin-dependent kinase 12 (Q9NYV4 whole entry): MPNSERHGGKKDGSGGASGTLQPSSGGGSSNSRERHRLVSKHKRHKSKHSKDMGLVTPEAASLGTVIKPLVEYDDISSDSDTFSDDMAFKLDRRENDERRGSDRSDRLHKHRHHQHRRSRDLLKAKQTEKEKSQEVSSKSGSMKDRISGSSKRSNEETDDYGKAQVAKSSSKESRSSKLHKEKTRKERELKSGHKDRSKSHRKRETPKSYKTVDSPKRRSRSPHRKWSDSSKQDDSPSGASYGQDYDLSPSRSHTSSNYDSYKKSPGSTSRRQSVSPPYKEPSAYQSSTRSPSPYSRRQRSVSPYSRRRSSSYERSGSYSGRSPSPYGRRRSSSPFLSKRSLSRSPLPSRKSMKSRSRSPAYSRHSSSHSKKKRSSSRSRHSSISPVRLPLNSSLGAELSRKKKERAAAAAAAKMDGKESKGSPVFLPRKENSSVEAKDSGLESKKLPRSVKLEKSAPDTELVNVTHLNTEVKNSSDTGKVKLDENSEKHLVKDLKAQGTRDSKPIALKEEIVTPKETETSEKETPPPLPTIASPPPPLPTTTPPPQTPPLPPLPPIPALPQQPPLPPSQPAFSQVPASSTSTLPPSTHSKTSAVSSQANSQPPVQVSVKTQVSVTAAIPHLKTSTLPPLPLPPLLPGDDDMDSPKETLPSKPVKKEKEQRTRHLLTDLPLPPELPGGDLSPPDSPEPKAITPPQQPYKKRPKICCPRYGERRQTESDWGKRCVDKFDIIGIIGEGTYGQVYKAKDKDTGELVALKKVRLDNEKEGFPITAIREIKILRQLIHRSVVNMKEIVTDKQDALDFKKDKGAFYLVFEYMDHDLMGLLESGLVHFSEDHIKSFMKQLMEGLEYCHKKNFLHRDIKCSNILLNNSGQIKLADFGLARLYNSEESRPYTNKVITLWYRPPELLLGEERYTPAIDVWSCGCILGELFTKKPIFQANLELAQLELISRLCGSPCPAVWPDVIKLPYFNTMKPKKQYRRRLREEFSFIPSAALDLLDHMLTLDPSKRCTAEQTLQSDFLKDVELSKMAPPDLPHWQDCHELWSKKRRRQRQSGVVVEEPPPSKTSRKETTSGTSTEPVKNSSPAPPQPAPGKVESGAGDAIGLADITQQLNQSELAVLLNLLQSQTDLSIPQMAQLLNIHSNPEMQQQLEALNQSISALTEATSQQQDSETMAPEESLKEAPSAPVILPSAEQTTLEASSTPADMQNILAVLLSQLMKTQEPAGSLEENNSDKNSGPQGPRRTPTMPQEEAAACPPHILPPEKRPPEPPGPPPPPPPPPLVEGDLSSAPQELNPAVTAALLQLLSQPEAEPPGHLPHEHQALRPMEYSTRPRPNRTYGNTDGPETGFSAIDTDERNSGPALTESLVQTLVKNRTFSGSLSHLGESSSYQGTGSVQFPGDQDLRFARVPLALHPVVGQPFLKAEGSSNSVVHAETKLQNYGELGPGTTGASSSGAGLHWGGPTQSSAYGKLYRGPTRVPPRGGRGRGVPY
Chain of Tyrosine-protein kinase BTK (Q06187 whole entry): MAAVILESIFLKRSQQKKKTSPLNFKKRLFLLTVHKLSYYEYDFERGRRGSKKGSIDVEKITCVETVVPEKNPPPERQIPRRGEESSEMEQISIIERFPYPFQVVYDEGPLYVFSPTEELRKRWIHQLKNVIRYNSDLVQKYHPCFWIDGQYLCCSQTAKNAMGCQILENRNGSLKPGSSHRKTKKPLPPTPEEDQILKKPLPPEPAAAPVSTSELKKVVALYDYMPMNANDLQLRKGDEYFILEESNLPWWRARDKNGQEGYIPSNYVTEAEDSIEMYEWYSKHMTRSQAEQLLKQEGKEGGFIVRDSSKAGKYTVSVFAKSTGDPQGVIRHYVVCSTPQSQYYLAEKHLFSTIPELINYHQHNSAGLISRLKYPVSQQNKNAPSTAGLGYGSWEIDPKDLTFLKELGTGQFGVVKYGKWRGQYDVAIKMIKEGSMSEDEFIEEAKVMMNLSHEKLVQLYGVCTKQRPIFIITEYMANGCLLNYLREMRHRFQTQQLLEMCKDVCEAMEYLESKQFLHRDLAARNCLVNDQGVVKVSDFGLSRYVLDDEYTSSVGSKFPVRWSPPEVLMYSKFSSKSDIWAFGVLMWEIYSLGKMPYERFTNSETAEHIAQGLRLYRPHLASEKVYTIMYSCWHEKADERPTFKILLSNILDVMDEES
Chain of cAMP-dependent protein kinase catalytic subunit gamma (P22612 whole entry): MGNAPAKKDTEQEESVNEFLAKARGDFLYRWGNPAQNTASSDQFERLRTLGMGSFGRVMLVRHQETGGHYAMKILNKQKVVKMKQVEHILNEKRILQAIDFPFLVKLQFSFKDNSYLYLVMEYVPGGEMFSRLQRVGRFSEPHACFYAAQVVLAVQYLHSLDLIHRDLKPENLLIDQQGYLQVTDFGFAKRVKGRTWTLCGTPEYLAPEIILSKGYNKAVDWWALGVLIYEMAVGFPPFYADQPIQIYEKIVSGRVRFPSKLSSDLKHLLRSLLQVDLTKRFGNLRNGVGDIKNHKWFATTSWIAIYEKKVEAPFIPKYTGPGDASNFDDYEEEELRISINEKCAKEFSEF

Row | SMILES | Kd [1] | Kd [2] | Kd [3] | Kd [4] | Kd [5] | Kd (Insulin receptor) | Kd (LIM domain kinase 1) | Kd [6] | Kd (Myosin-10) | Kd [7] | Kd [8] | Kd [9] | Kd [10] | Kd (TGF-beta receptor type-2)
1 | COCc1c(-c2ccc(NC(=O)Nc3cc(C(F)(F)F)ccc3F)c(F)c2)c2c(N)ncnn2c1CN1CCOCC1 | > 30 µM (inactive) | > 30 µM (inactive) | > 30 µM (inactive) | > 30 µM (inactive) | > 30 µM (inactive) | > 30 µM (inactive) | > 30 µM (inactive) | > 30 µM (inactive) | > 30 µM (inactive) | > 30 µM (inactive) | > 30 µM (inactive) | > 30 µM (inactive) | > 30 µM (inactive) | > 30 µM (inactive)
2 | CNC(=O)c1cc(Oc2ccc(NC(=O)Nc3cc(C(C)(C)C)nn3-c3ccc4ncccc4c3)c(F)c2)ccn1 [REBASTINIB] | > 30 µM (inactive) | 1.22 µM (active) | > 30 µM (inactive) | > 30 µM (inactive) | > 30 µM (inactive) | > 30 µM (inactive) | 0.535 µM (active) | > 30 µM (inactive) | > 30 µM (inactive) | > 30 µM (inactive) | > 30 µM (inactive) | > 30 µM (inactive) | > 30 µM (inactive) | > 30 µM (inactive)
3 | C=CC(=O)N1CCC[C@H](n2c(=O)n(-c3ccc(Oc4ccccc4)cc3)c3c(N)ncnc32)C1 | > 30 µM (inactive) | 0.004 µM (active) | > 30 µM (inactive) | > 30 µM (inactive) | > 30 µM (inactive) | > 30 µM (inactive) | > 30 µM (inactive) | > 30 µM (inactive) | > 30 µM (inactive) | > 30 µM (inactive) | > 30 µM (inactive) | > 30 µM (inactive) | > 30 µM (inactive) | > 30 µM (inactive)
4 | COc1ccc(S(=O)(=O)N(C(C)=O)c2ccccc2/C=C/c2cc[n+]([O-])cc2)cc1 [HMN-214] | > 30 µM (inactive) | > 30 µM (inactive) | > 30 µM (inactive) | > 30 µM (inactive) | > 30 µM (inactive) | > 30 µM (inactive) | > 30 µM (inactive) | > 30 µM (inactive) | > 30 µM (inactive) | > 30 µM (inactive) | > 30 µM (inactive) | > 30 µM (inactive) | > 30 µM (inactive) | > 30 µM (inactive)
5 | COc1cc2c(Nc3ccc(Cl)c(Cl)c3F)ncnc2cc1OC[C@@H]1C[C@@H]2CN(C)C[C@@H]2C1 [TESEVATINIB] | > 30 µM (inactive) | 1.62 µM (active) | > 30 µM (inactive) | > 30 µM (inactive) | > 30 µM (inactive) | > 30 µM (inactive) | > 30 µM (inactive) | > 30 µM (inactive) | > 30 µM (inactive) | > 30 µM (inactive) | > 30 µM (inactive) | > 30 µM (inactive) | > 30 µM (inactive) | > 30 µM (inactive)
6 | CO[C@H]1C[C@@H]2CC[C@@H](C)[C@@](O)(O2)C(=O)C(=O)N2CCCC[C@H]2C(=O)O[C@H]([C@H](C)C[C@@H]2CC[C@@H](OC(=O)C(C)(CO)CO)[C@H](OC)C2)CC(=O)[C@H](C)/C=C(\C)[C@@H](O)[C@@H](OC)C(=O)[C@H](C)C[C@H](C)/C=C/C=C/C=C/1C [TEMSIROLIMUS] | > 30 µM (inactive) | > 30 µM (inactive) | > 30 µM (inactive) | > 30 µM (inactive) | > 30 µM (inactive) | > 30 µM (inactive) | > 30 µM (inactive) | > 30 µM (inactive) | > 30 µM (inactive) | > 30 µM (inactive) | > 30 µM (inactive) | > 30 µM (inactive) | > 30 µM (inactive) | > 30 µM (inactive)
7 | COc1c(OCCCN2CCOCC2)ccc2c1N=C(NC(=O)c1cnc(N)nc1)N1CCN=C21 [COPANLISIB] | > 30 µM (inactive) | > 30 µM (inactive) | > 30 µM (inactive) | > 30 µM (inactive) | > 30 µM (inactive) | > 30 µM (inactive) | > 30 µM (inactive) | > 30 µM (inactive) | > 30 µM (inactive) | > 30 µM (inactive) | > 30 µM (inactive) | > 30 µM (inactive) | > 30 µM (inactive) | > 30 µM (inactive)
